According to article PMC7763155, “Design and Characterisation of Inhibitory Peptides against Bleg1_2478, an Evolutionary Divergent B3 Metallo-β-lactamase” (Molecules, 2020):
Read-outs that look alike come from different tables or passages of the source. No end group written: not given here.

What was measured:
MBLs = settings: in words; ref [20]; cited from earlier work
Text: (§1) AMR among bacteria can be acquired through various means, i.e., through: (1) hydrolysis or inactivation of antibiotics by synthesizing enzymes; (2) redox process by exploiting the oxidation or reduction of the antibiotics; (3) modification of antibiotics by chemical substitution; (4) modification of the inhibition binding site in the target; (5) mutations on genes that encode the target or efflux pump that affect antibiotics uptake; (6) horizontal gene transfer where resistant genes are transferred from one pathogen to another via transduction, conjugation or ...

Class A SBLs = settings: in words; ref [17],[18],[19]; cited from earlier work
Text: as §1

Bleg1_2478 [1] = biological target: T1, Bleg1_2478 (Shouchella lehensis (Bacillus lehensis), UniProt A0A060M4R1); settings: in words; ref [22]; cited from earlier work
Text: Biochemical characterization of purified recombinant Bleg1_2478 further confirmed that it was indeed capable of degrading β-lactam antibiotics, with ampicillin ...

Bleg1_2478 [2] = biological target: T1, Bleg1_2478; assay: Isothermal titration calorimetry (ITC) with Bleg1_2478; type: binding, Bacillus lehensis G1
Protocol: ITC measurement was performed at 30 °C with nanoisothermal titration calorimetry, TA Instrument, USA at Malaysian Genome Institute. The peptides were dissolved in 20 mM sodium phosphate buffer (Na2HPO4-NaH2PO4) (pH 7.0). Bleg1_2478 protein sample, the selected peptide inhibitors and 20 mM sodium phosphate buffer (Na2HPO4-NaH2PO4) (pH 7.0) were firstly degassed by using Themovac Unit. The experiment was carried out at 30 °C with stirring speed of 300 rpm. The calorimetry data were subsequently analysed using NanoAnalyze Software v3.8.0. (New Castle, DE, USA)

Bleg1_2478 [3] = biological target: T1, Bleg1_2478; assay: Inhibitory assay of designed peptides against Bleg1_2478 (ampicillin hydrolysis); type: biochemical, Bacillus lehensis G1; settings: pH 7.0, 30 °C, triplicates
Protocol: The ability of the peptides in inhibiting Bleg1_2478 was investigated via inhibitory assay. Firstly, enzymatic assay of purified Bleg1_2478 recombinant protein using ampicillin as the substrate was performed, serving as the positive control. The assay was carried out based on the method by. All assays were performed at 30 °C in total assay volume of 3 mL containing 20 mM sodium phosphate (Na2HPO4-NaH2PO4) (pH 7.0), 20 µg/mL BSA, 100 µM ZnSO4, 10 µM Bleg1_2478 and 100 µM ampicillin. The reaction was monitored by recording the absorbance at 235 nm every 1 min for a total duration of 6 min using a 50 Bio UV Visible Spectrophotometry. […] All assays were done in triplicates.

[4] = biological target: Bleg1_2478 recombinant protein (Bacillus lehensis G1)
[5] = biological target: Bleg1_2478 recombinant protein (Bacillus lehensis G1); remark: listed apart in the source
[6] = biological target: Bleg1_2478 recombinant protein (Bacillus lehensis G1); assay: ITC; nano isothermal titration calorimetry (TA Instruments), 30 °C, 20 mM sodium phosphate buffer pH 7.0, stirring 300 rpm; which partner was in the cell and the concentrations are not stated
[7] = 10 µM peptide, 10 µM enzyme, 100 µM ampicillin
[8] = ITC, 30 °C, 20 mM sodium phosphate pH 7.0, 300 rpm, read-out: Dissociation constant, Kd

Molecule: C[C@]1(Cn2ccnn2)[C@H](C(=O)O)N2C(=O)C[C@H]2S1(=O)=O [tazobactam]
- Effectiveness against MBLs (MBLs): not
- Effectiveness against Class A SBLs (Class A SBLs): effective

Molecule: CC1(C)[C@H](C(=O)O)N2C(=O)C[C@H]2S1(=O)=O [sulbactam]
- Effectiveness against MBLs (MBLs): not
- Effectiveness against Class A SBLs (Class A SBLs): effective

Molecule: CC1(C)S[C@@H]2[C@H](NC(=O)[C@H](N)c3ccccc3)C(=O)N2[C@H]1C(=O)O [Ampicillin, ampicillin, reference compound]
- Substrate preference (Bleg1_2478 [1]): preferred substrate
- Kd (Bleg1_2478 [2]): 1470 nM
- Entropy, ΔS (Bleg1_2478 [2]; ITC, 30 °C, 20 mM sodium phosphate pH 7.0): −248.00 J/mol·K
- Association constant, Ka (Bleg1_2478 [2]; ITC, 30 °C, 20 mM sodium phosphate pH 7.0, 300 rpm): 680000 M⁻¹
- Number of binding sites from stoichiometry (Bleg1_2478 [2]; ITC, in words): one binding site

Molecule: O=C(O)[C@H]1/C(=C/CO)O[C@@H]2CC(=O)N21 [clavulanate]
- Effectiveness against MBLs (MBLs): not
- Effectiveness against Class A SBLs (Class A SBLs): effective

Molecule: SSWWDR [SSWWDR]
- Inhibition of Bleg1_2478 (Bleg1_2478 [3]; 0.25 µM peptide): 4%
- Inhibition of Bleg1_2478 (Bleg1_2478 [3]; 0.50 µM peptide): 48%
- Inhibition of Bleg1_2478 (Bleg1_2478 [3]; 0.75 µM peptide): 64%
- Inhibition of Bleg1_2478 (Bleg1_2478 [3]; [7]): 88%
- Inhibition of Bleg1_2478 (Bleg1_2478 [3]; 20 µM peptide, 10 µM enzyme, 100 µM ampicillin): 96%
- Kd (Bleg1_2478 [2]; [8]): 992 nM
- Fold increase in binding affinity (Ka) (Bleg1_2478 [2]; ITC, compared to ampicillin): 1.5 fold
- Fold increase in binding strength (Kd) (Bleg1_2478 [2]; ITC, compared to ampicillin): 68 fold

Molecule: RSWPWH [RSWPWH]
- Inhibition of Bleg1_2478 (Bleg1_2478 [3]; 0.75 µM peptide): 12%
- Inhibition of Bleg1_2478 (Bleg1_2478 [3]; [7]): 92%
- Kd (Bleg1_2478 [2]; [8]): 497 nM
- Fold increase in binding strength (Kd) (Bleg1_2478 [2]; ITC, compared to ampicillin): 34 fold

Molecule: SSWWDR [SSWWDR inhibitory peptide]
- percent inhibition of Bleg1 2478 activity on ampicillin at 0.25 to 20 µM peptide (4% at 0.25 µM, 48% at 0.50 µM, 64% at 0.75 µM, 76% at 1 µM, 88% at 10 µM, 96% at 20 µM) [4]: 96%
- IC50 of inhibition of Bleg1 2478 enzymatic activity (hydrolysis of 100 µM ampicillin by 10 µM Bleg1 2478, absorbance at 235 nm, 30 °C, pH 7.0) [5]: 0.5 µM
- Ka [6]: 1.01e+06 M⁻¹
- Kd [6]: 992 nM
- stoichiometry N [6]: 0.722

Molecule: RSWPWH [RSWPWH inhibitory peptide]
- percent inhibition of Bleg1 2478 activity on ampicillin at 0.75 to 20 µM peptide (12% at 0.75 µM, 54% at 0.90 µM, 68% at 1 µM, 92% at 10 µM, the same at 20 µM) [4]: 92%
- IC50 of inhibition of Bleg1 2478 enzymatic activity (hydrolysis of 100 µM ampicillin by 10 µM Bleg1 2478, absorbance at 235 nm, 30 °C, pH 7.0) [5]: 0.9 µM
- Ka [6]: 2.01e+06 M⁻¹
- Kd [6]: 497 nM
- stoichiometry N [6]: 0.941
